In patent US7612064B2, “Sulfopyrroles” (Takeda Pharmaceutical Company Limited, priority 2003, dated 2009):

Columns and labels:
Jily = test: MTS proliferation assay; type: cell-based; conditions: 72 h
Outline: (§1)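 Absorbance at 492 nm after a 3 h MTS incubation reports viable cell number. Before that, compounds at 10 μM, 3 μM, 1 μM and 0.3 μM final stay on the cells for 72 h at culture conditions.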

MRC5 = test: MTS proliferation assay; type: cell-based; conditions: MRC5, 72 h
Outline: as §1

HeLa [1] = test: MTS proliferation assay; type: cell-based, human; conditions: 72 h
Outline: as §1

Jurkat [2] = test: MTS proliferation assay; type: cell-based, human; conditions: 72 h
Outline: as §1

[3] = Hoechst 33342 nuclear staining; type: cell-based; conditions: 24 h or 48 h incubation; for Hoechst 33342 nuclear staining score, H460: H460 cells; for Hoechst 33342 nuclear staining score, HeLa: HeLa cells; for Hoechst 33342 nuclear staining score, Jily: Jily cells; for Hoechst 33342 nuclear staining score, Jurkat: Jurkat cells; for Hoechst 33342 nuclear staining score, MRC5: MRC5 cells;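 as to all read-outs here: apoptotic nuclei scored 0 none 1 weak under 50% of cells 2 strong over 50% of cells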
Outline: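 Cells were plated in 96 well tissue culture plates in 80 μl complete medium, with 3-5*10^3 cells per well for adherent lines and 8-10*10^3 for suspension lines. Adherent cells spread for 24 h before treatment, while suspension cells were treated right after seeding. Compounds were added in 20 μl complete medium containing max 5% DMSO.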

HeLa [4] = test: PI staining for cell cycle distribution; type: cell-based, human; parameters: key: 0: no effect; 1: weak effect; 2: strong effect; conditions: HeLa 10μM, 48 h
Procedure: (§2) 1-2*10^5 cells are seeded into 24 well tissue culture plates and incubated for 24 h prior to compound addition. […] Adherent cells are harvested by trypsinization. The cell suspensions are fixed by adding 2 parts ice cold ethanol 100% while vortexing. Then the samples are stored for>2 h at −20° C. Subsequently the cells are washed with PBS once and resuspended in 250 μl PBS containing 50 μg/ml PI (Calbiochem # 537059), then the samples are incubated at 37° C. for 30 min and subsequently analyzed on a FACSCalibur™ monitoring linear PI fluorescence activity on FL2. The readout allows the detection of a possible direct or indirect influence of the tested compounds on the cell cycle. The following events can occur: a) Generation of a subG1 peak indicative for DNA fragmentation, b) increase of the cell population arrested in G2M phase. Both events are scored by 1 for weak and 2 for strong occurrence. 0 indicates no occurrence at all.

Jurkat [5] = test: PI staining for cell cycle distribution; type: cell-based, human; parameters: key: 0: no effect; 1: weak effect; 2: strong effect; conditions: Jurkat 3μM, 48 h
Procedure: as §2

[6] = conc 0.1 (final concentrations in μM)
[7] = conc 0.3 (final concentrations in μM)
[8] = conc 1 (final concentrations in μM)
[9] = conc 3 (final concentrations in μM)

| IC50 (HeLa [1]) | IC50 (Jurkat [2]) | Molecule | IC50 (MRC5) | Hoechst 33342 nuclear staining score, H460 [3, 6] | Hoechst 33342 nuclear staining score, H460 [3, 7] | Hoechst 33342 nuclear staining score, H460 [3, 8] | Hoechst 33342 nuclear staining score, H460 [3, 9] | Hoechst 33342 nuclear staining score, HeLa [3, 6] | Hoechst 33342 nuclear staining score, HeLa [3, 7] | Hoechst 33342 nuclear staining score, HeLa [3, 8] | Hoechst 33342 nuclear staining score, HeLa [3, 9] | Hoechst 33342 nuclear staining score, Jily [3, 6] | Hoechst 33342 nuclear staining score, Jily [3, 7] | Hoechst 33342 nuclear staining score, Jily [3, 8] | Hoechst 33342 nuclear staining score, Jily [3, 9] | Hoechst 33342 nuclear staining score, Jurkat [3, 6] | PI staining for cell cycle distribution, G2M (HeLa [4]) | PI staining for cell cycle distribution, subG1 (HeLa [4]) | PI staining for cell cycle distribution, G2M (Jurkat [5]) | PI staining for cell cycle distribution, subG1 (Jurkat [5]) | also measured |
| --- | --- | --- | --- | --- | --- | --- | --- | --- | --- | --- | --- | --- | --- | --- | --- | --- | --- | --- | --- | --- | --- |
| < 1 µM | < 1 µM | Cc1ccc(S(=O)(=O)n2cc(-c3ccc(S(N)(=O)=O)cc3)cc2-c2ccc3c(c2)OCO3)cc1 [Example 51] | < 1 µM | 0 | 0 | 2 (strong activity comprising more than 50% of the cells) | 2 (strong activity comprising more than 50% of the cells) | 0 | 0 | 2 (strong activity comprising more than 50% of the cells) | 2 (strong activity comprising more than 50% of the cells) | 0 | 0 | 2 (strong activity comprising more than 50% of the cells) | 2 (strong activity comprising more than 50% of the cells) | 0 | 2 | 0 | 1 | 0 | IC50 (Jily): < 1 µM; Hoechst 33342 nuclear staining score, Jurkat [3, 7]: 0; Hoechst 33342 nuclear staining score, Jurkat [3, 8]: 2 (strong activity comprising more than 50% of the cells); Hoechst 33342 nuclear staining score, Jurkat [3, 9]: 2 (strong activity comprising more than 50% of the cells); Hoechst 33342 nuclear staining score, MRC5 [3, 6]: 0; Hoechst 33342 nuclear staining score, MRC5 [3, 7]: 0; Hoechst 33342 nuclear staining score, MRC5 [3, 8]: 1 (weak activity comprising less than 50% of the cells); Hoechst 33342 nuclear staining score, MRC5 [3, 9]: 1 (weak activity comprising less than 50% of the cells); Hoechst 33342 nuclear staining score, PBLs [3, 6]: 0; Hoechst 33342 nuclear staining score, PBLs [3, 7]: 0; Hoechst 33342 nuclear staining score, PBLs [3, 8]: 0; Hoechst 33342 nuclear staining score, PBLs [3, 9]: 0 |
| > 1 µM | < 1 µM | Cc1ccc(S(=O)(=O)n2cc(-c3cncc(C(N)=O)c3)cc2-c2cccs2)cc1 [Example 53] | > 1 µM | 0 | 0 | 0 | 0 | 0 | 0 | 0 | 0 | 0 | 0 | 0 | 0 | 0 | 2 | 0 | 1 | 0 | Hoechst 33342 nuclear staining score, Jurkat [3, 7]: 0; Hoechst 33342 nuclear staining score, Jurkat [3, 8]: 0; Hoechst 33342 nuclear staining score, Jurkat [3, 9]: 0; Hoechst 33342 nuclear staining score, MRC5 [3, 6]: 0; Hoechst 33342 nuclear staining score, MRC5 [3, 7]: 0; Hoechst 33342 nuclear staining score, MRC5 [3, 8]: 0; Hoechst 33342 nuclear staining score, MRC5 [3, 9]: 0; Hoechst 33342 nuclear staining score, PBLs [3, 6]: 0; Hoechst 33342 nuclear staining score, PBLs [3, 7]: 0; Hoechst 33342 nuclear staining score, PBLs [3, 8]: 0; Hoechst 33342 nuclear staining score, PBLs [3, 9]: 0 |
| > 1 µM | < 1 µM | COc1cc(-c2cc(CNc3ccc(-n4ccnc4)cc3)cn2S(=O)(=O)c2ccc(C)cc2)cc(OC)c1OC [Example 55] | < 1 µM | 0 | 0 | 0 | 2 (strong activity comprising more than 50% of the cells) | 0 | 0 | 1 (weak activity comprising less than 50% of the cells) | 2 (strong activity comprising more than 50% of the cells) | 0 | 0 | 2 (strong activity comprising more than 50% of the cells) | 2 (strong activity comprising more than 50% of the cells) | 0 | 2 | 0 | 1 | 0 | IC50 (Jily): > 1 µM; Hoechst 33342 nuclear staining score, Jurkat [3, 7]: 0; Hoechst 33342 nuclear staining score, Jurkat [3, 8]: 2 (strong activity comprising more than 50% of the cells); Hoechst 33342 nuclear staining score, Jurkat [3, 9]: 2 (strong activity comprising more than 50% of the cells); Hoechst 33342 nuclear staining score, MRC5 [3, 6]: 0; Hoechst 33342 nuclear staining score, MRC5 [3, 7]: 0; Hoechst 33342 nuclear staining score, MRC5 [3, 8]: 0; Hoechst 33342 nuclear staining score, MRC5 [3, 9]: 1 (weak activity comprising less than 50% of the cells); Hoechst 33342 nuclear staining score, PBLs [3, 6]: 0; Hoechst 33342 nuclear staining score, PBLs [3, 7]: 0; Hoechst 33342 nuclear staining score, PBLs [3, 8]: 0; Hoechst 33342 nuclear staining score, PBLs [3, 9]: 0 |
| < 1 µM | < 0.2 µM | COc1cc(-c2cc(-c3cncc(C(N)=O)c3)cn2S(=O)(=O)c2ccc(C)cc2)cc(OC)c1OC [Example 56] | < 1 µM | 0 | 2 (strong activity comprising more than 50% of the cells) | 2 (strong activity comprising more than 50% of the cells) | 2 (strong activity comprising more than 50% of the cells) | 0 | 0 | 2 (strong activity comprising more than 50% of the cells) | 2 (strong activity comprising more than 50% of the cells) | 0 | 2 (strong activity comprising more than 50% of the cells) | 2 (strong activity comprising more than 50% of the cells) | 2 (strong activity comprising more than 50% of the cells) | 0 | 2 | 0 | 1 | 0 | IC50 (Jily): < 1 µM; Hoechst 33342 nuclear staining score, Jurkat [3, 7]: 2 (strong activity comprising more than 50% of the cells); Hoechst 33342 nuclear staining score, Jurkat [3, 8]: 2 (strong activity comprising more than 50% of the cells); Hoechst 33342 nuclear staining score, Jurkat [3, 9]: 2 (strong activity comprising more than 50% of the cells); Hoechst 33342 nuclear staining score, MRC5 [3, 6]: 0; Hoechst 33342 nuclear staining score, MRC5 [3, 7]: 2 (strong activity comprising more than 50% of the cells); Hoechst 33342 nuclear staining score, MRC5 [3, 8]: 2 (strong activity comprising more than 50% of the cells); Hoechst 33342 nuclear staining score, MRC5 [3, 9]: 2 (strong activity comprising more than 50% of the cells); Hoechst 33342 nuclear staining score, PBLs [3, 6]: 0; Hoechst 33342 nuclear staining score, PBLs [3, 7]: 0; Hoechst 33342 nuclear staining score, PBLs [3, 8]: 0; Hoechst 33342 nuclear staining score, PBLs [3, 9]: 0 |

| Molecule | IC50 (HeLa [1]) | IC50 (Jurkat [2]) | IC50 (MRC5) | Hoechst 33342 nuclear staining score, H460 [3, 6] | Hoechst 33342 nuclear staining score, H460 [3, 7] | Hoechst 33342 nuclear staining score, H460 [3, 8] | Hoechst 33342 nuclear staining score, H460 [3, 9] | Hoechst 33342 nuclear staining score, HeLa [3, 6] | Hoechst 33342 nuclear staining score, HeLa [3, 7] | Hoechst 33342 nuclear staining score, HeLa [3, 8] | Hoechst 33342 nuclear staining score, HeLa [3, 9] | Hoechst 33342 nuclear staining score, Jily [3, 6] | Hoechst 33342 nuclear staining score, Jily [3, 7] | Hoechst 33342 nuclear staining score, Jily [3, 8] | Hoechst 33342 nuclear staining score, Jily [3, 9] | Hoechst 33342 nuclear staining score, Jurkat [3, 6] | PI staining for cell cycle distribution, G2M (HeLa [4]) | PI staining for cell cycle distribution, subG1 (HeLa [4]) | PI staining for cell cycle distribution, G2M (Jurkat [5]) | PI staining for cell cycle distribution, subG1 (Jurkat [5]) | also measured |
| --- | --- | --- | --- | --- | --- | --- | --- | --- | --- | --- | --- | --- | --- | --- | --- | --- | --- | --- | --- | --- | --- |
| p-(1-[p-Toluenesulfonyl]-2-[3,4,5-trimethoxyphenyl]-4-pyrrolyl)-benzamide [Example 6] | < 1 µM | < 0.2 µM | < 1 µM |  |  |  |  |  |  |  |  |  |  |  |  |  | 2 | 0 | 1 | 0 |  |
